Experiments:
Test in all cases: relative viability (nuclei count vs DMSO), 5 days (fraction); higher = more cells survive
[1] = test system: NCI-H460
Summary of the method: (§1)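 Each reported value is a median over duplicate plates. It expresses relative viability: treated-well nuclei count divided by vehicle-well nuclei count. Lung cancer cell lines in 1536-well plates were dosed by pin tool a day after seeding, alone with one drug or with a fixed anchor-drug dose plus five library-drug doses (not always all listed) in √10 steps, and nuclei were counted after 5 days.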

[2] = test system: NCI-H2126
Summary of the method: as §1

[3] = test system: LCLC-97TM1
Summary of the method: as §1

[4] = test system: HARA
Summary of the method: as §1

[5] = test system: NCI-H23
Summary of the method: as §1

[6] = test system: EMC-BAC-2
Summary of the method: as §1

[7] = test system: NCI-H1944
Summary of the method: as §1

[8] = test system: PC-3 [JPC-3]
Summary of the method: as §1

[9] = test system: NCI-H1792
Summary of the method: as §1

[10] = test system: NCI-H441
Summary of the method: as §1

[11] = test system: NCI-H1793
Summary of the method: as §1

[12] = test system: NCI-H1437
Summary of the method: as §1

[13] = test system: NCI-H322M
Summary of the method: as §1

[14] = test system: NCI-H522
Summary of the method: as §1

[15] = test system: SW 900
Summary of the method: as §1

[16] = test system: NCI-H1915
Summary of the method: as §1

[17] = test system: HCC-827
Summary of the method: as §1

[18] = test system: HCC-15
Summary of the method: as §1

[19] = test system: ChaGo-K-1
Summary of the method: as §1

[20] = test system: LU99A
Summary of the method: as §1

[21] = test system: EKVX
Summary of the method: as §1

[22] = test system: LC-2-ad
Summary of the method: as §1

[23] = test system: H3255
Summary of the method: as §1

[24] = test system: SK-LU-1
Summary of the method: as §1

[25] = test system: NCI-H661
Summary of the method: as §1

For `CCCCCCCCCCCC1=C(O)C(=O)C=C(O)C1=O` [Embelin] + O=C(c1cc(Cc2n[nH]c(=O)c3ccccc23)ccc1F)N1CCN(C(=O)C2CC2)CC1 [Olaparib] (partner 8 µM), which relative viability ([1]; first compound 0.08 µM) is on record?
Its relative viability is 0.45.

And the relative viability ([1]; first compound 0.8 µM)?
The relative viability was 0.431.

And the relative viability ([1]; first compound 2.53 µM)?
The relative viability was 0.421.

And the relative viability ([1]; first compound 8 µM)?
The relative viability was 0.468.

What about the relative viability ([2]; first compound 0.08 µM) of the same compound?
The relative viability was 0.901.

What about the relative viability ([2]; first compound 0.8 µM) of the same compound?
Its relative viability is 0.954.

What about the relative viability ([2]; first compound 2.53 µM) of the same compound?
The relative viability was 0.936.

And the relative viability ([2]; first compound 8 µM)?
Its relative viability is 0.892.

And the relative viability ([3]; first compound 0.08 µM)?
The relative viability was 0.38.

What about the relative viability ([3]; first compound 0.8 µM) of the same compound?
Its relative viability is 0.462.

And the relative viability ([3]; first compound 2.53 µM)?
Its relative viability is 0.445.

What about the relative viability ([3]; first compound 8 µM) of the same compound?
The relative viability was 0.45.

What about the relative viability ([4]; first compound 0.08 µM) of the same compound?
Its relative viability is 0.85.

And the relative viability ([4]; first compound 0.8 µM)?
The relative viability was 0.734.

And the relative viability ([4]; first compound 2.53 µM)?
Its relative viability is 1.12.

And the relative viability ([4]; first compound 8 µM)?
The relative viability was 0.763.

And the relative viability ([5]; first compound 0.08 µM)?
The relative viability was 0.298.

What about the relative viability ([5]; first compound 0.8 µM) of the same compound?
Its relative viability is 0.257.

What about the relative viability ([5]; first compound 2.53 µM) of the same compound?
The relative viability was 0.344.

And the relative viability ([5]; first compound 8 µM)?
The relative viability was 0.274.

And the relative viability ([6]; first compound 0.08 µM)?
Its relative viability is 0.48.

What about the relative viability ([6]; first compound 0.8 µM) of the same compound?
Its relative viability is 0.378.

What about the relative viability ([6]; first compound 2.53 µM) of the same compound?
The relative viability was 0.453.

What about the relative viability ([6]; first compound 8 µM) of the same compound?
The relative viability was 0.492.

What about the relative viability ([7]; first compound 0.08 µM) of the same compound?
The relative viability was 0.402.

What about the relative viability ([7]; first compound 0.8 µM) of the same compound?
The relative viability was 0.474.

And the relative viability ([7]; first compound 2.53 µM)?
The relative viability was 0.472.

And the relative viability ([7]; first compound 8 µM)?
Its relative viability is 0.425.

What about the relative viability ([8]; first compound 0.08 µM) of the same compound?
The relative viability was 1.12.

What about the relative viability ([8]; first compound 0.8 µM) of the same compound?
The relative viability was 1.17.

And the relative viability ([8]; first compound 2.53 µM)?
The relative viability was 1.17.

And the relative viability ([8]; first compound 8 µM)?
Its relative viability is 1.07.

What about the relative viability ([9]; first compound 0.08 µM) of the same compound?
The relative viability was 0.507.

What about the relative viability ([9]; first compound 0.8 µM) of the same compound?
The relative viability was 0.42.

And the relative viability ([9]; first compound 2.53 µM)?
Its relative viability is 0.547.

What about the relative viability ([9]; first compound 8 µM) of the same compound?
The relative viability was 0.278.

What about the relative viability ([10]; first compound 0.08 µM) of the same compound?
The relative viability was 0.624.

And the relative viability ([10]; first compound 0.8 µM)?
The relative viability was 0.627.

And the relative viability ([10]; first compound 2.53 µM)?
Its relative viability is 0.521.

And the relative viability ([10]; first compound 8 µM)?
Its relative viability is 0.618.

What about the relative viability ([11]; first compound 0.08 µM) of the same compound?
Its relative viability is 0.993.

And the relative viability ([11]; first compound 0.8 µM)?
The relative viability was 1.03.

And the relative viability ([11]; first compound 2.53 µM)?
Its relative viability is 1.12.

What about the relative viability ([11]; first compound 8 µM) of the same compound?
The relative viability was 1.05.

What about the relative viability ([12]; first compound 0.08 µM) of the same compound?
Its relative viability is 0.611.

And the relative viability ([12]; first compound 0.8 µM)?
Its relative viability is 0.685.

And the relative viability ([12]; first compound 2.53 µM)?
Its relative viability is 0.639.

What about the relative viability ([12]; first compound 8 µM) of the same compound?
Its relative viability is 0.495.

What about the relative viability ([13]; first compound 0.08 µM) of the same compound?
The relative viability was 0.776.

What about the relative viability ([13]; first compound 0.8 µM) of the same compound?
Its relative viability is 0.617.

And the relative viability ([13]; first compound 2.53 µM)?
Its relative viability is 0.75.

And the relative viability ([13]; first compound 8 µM)?
Its relative viability is 0.774.

And the relative viability ([14]; first compound 0.08 µM)?
Its relative viability is 0.674.

What about the relative viability ([14]; first compound 0.8 µM) of the same compound?
Its relative viability is 0.633.

What about the relative viability ([14]; first compound 2.53 µM) of the same compound?
The relative viability was 0.689.

What about the relative viability ([14]; first compound 8 µM) of the same compound?
The relative viability was 0.945.

What about the relative viability ([15]; first compound 0.08 µM) of the same compound?
The relative viability was 1.

And the relative viability ([15]; first compound 0.8 µM)?
The relative viability was 0.771.

What about the relative viability ([15]; first compound 2.53 µM) of the same compound?
The relative viability was 1.15.

And the relative viability ([15]; first compound 8 µM)?
The relative viability was 0.918.

What about the relative viability ([16]; first compound 0.08 µM) of the same compound?
The relative viability was 0.274.

What about the relative viability ([16]; first compound 0.8 µM) of the same compound?
Its relative viability is 0.254.

What about the relative viability ([16]; first compound 2.53 µM) of the same compound?
Its relative viability is 0.243.

What about the relative viability ([16]; first compound 8 µM) of the same compound?
The relative viability was 0.248.

What about the relative viability ([17]; first compound 0.08 µM) of the same compound?
Its relative viability is 0.634.

And the relative viability ([17]; first compound 0.8 µM)?
Its relative viability is 0.648.

And the relative viability ([17]; first compound 2.53 µM)?
Its relative viability is 0.701.

What about the relative viability ([17]; first compound 8 µM) of the same compound?
The relative viability was 0.715.

What about the relative viability ([18]; first compound 0.08 µM) of the same compound?
The relative viability was 0.689.

And the relative viability ([18]; first compound 0.8 µM)?
The relative viability was 0.727.

What about the relative viability ([18]; first compound 2.53 µM) of the same compound?
The relative viability was 0.823.

And the relative viability ([18]; first compound 8 µM)?
Its relative viability is 0.73.

And the relative viability ([19]; first compound 0.08 µM)?
Its relative viability is 0.464.

What about the relative viability ([19]; first compound 0.8 µM) of the same compound?
Its relative viability is 0.319.

What about the relative viability ([19]; first compound 2.53 µM) of the same compound?
Its relative viability is 0.441.

What about the relative viability ([19]; first compound 8 µM) of the same compound?
The relative viability was 0.45.

What about the relative viability ([20]; first compound 0.08 µM) of the same compound?
The relative viability was 0.293.

And the relative viability ([20]; first compound 0.8 µM)?
The relative viability was 0.218.

And the relative viability ([20]; first compound 2.53 µM)?
Its relative viability is 0.281.

And the relative viability ([20]; first compound 8 µM)?
The relative viability was 0.241.

And the relative viability ([21]; first compound 0.08 µM)?
Its relative viability is 0.816.

And the relative viability ([21]; first compound 0.8 µM)?
Its relative viability is 0.856.

And the relative viability ([21]; first compound 2.53 µM)?
The relative viability was 0.984.

And the relative viability ([21]; first compound 8 µM)?
Its relative viability is 0.897.

And the relative viability ([22]; first compound 0.08 µM)?
Its relative viability is 0.675.

What about the relative viability ([22]; first compound 0.8 µM) of the same compound?
Its relative viability is 0.728.

And the relative viability ([22]; first compound 2.53 µM)?
The relative viability was 0.678.

And the relative viability ([22]; first compound 8 µM)?
Its relative viability is 0.727.

What about the relative viability ([23]; first compound 0.08 µM) of the same compound?
Its relative viability is 0.561.

And the relative viability ([23]; first compound 0.8 µM)?
The relative viability was 0.614.

And the relative viability ([23]; first compound 2.53 µM)?
Its relative viability is 0.59.

And the relative viability ([23]; first compound 8 µM)?
The relative viability was 0.546.

What about the relative viability ([24]; first compound 0.08 µM) of the same compound?
Its relative viability is 0.591.

What about the relative viability ([24]; first compound 0.8 µM) of the same compound?
Its relative viability is 0.56.

What about the relative viability ([24]; first compound 2.53 µM) of the same compound?
The relative viability was 0.505.

What about the relative viability ([24]; first compound 8 µM) of the same compound?
The relative viability was 0.433.

What about the relative viability ([25]; first compound 0.08 µM) of the same compound?
The relative viability was 0.771.

And the relative viability ([25]; first compound 0.8 µM)?
The relative viability was 0.75.

And the relative viability ([25]; first compound 2.53 µM)?
The relative viability was 0.737.

And the relative viability ([25]; first compound 8 µM)?
The relative viability was 0.722.

— the supplement of paper PMC10307832
